Each structure is given as a SMILES string.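 Test compounds were applied to cells in 96-well plates for 48 hours at 5 doses. TGI: concentration producing complete growth inhibition.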

Data on six compounds can be found in PubChem BioAssay (NCI).

Test systems include BT-549 breast; COLO 205 colon; A498 renal; ACHN renal; UO-31 renal; MDA-MB-435; UACC-62 melanoma; NCI-H522 lung; A549 NSCLC; MALME-3M melanoma; HCT-15 colon; LOX IMVI melanoma; OVCAR-8 ovarian; SF-295 CNS; OVCAR-3 ovarian; CCRF-CEM leukemia; NCI/ADR-RES ovarian; NCI-H226 lung; SNB-75 CNS; 786-0 renal.
Experiment in all cases: NCI-60 cell line screen, 48 h

On to `COc1cc(S(=O)(=O)Nc2ccc(-c3csc(/N=C\c4cccs4)n3)cc2)ccc1Cl`, for which the TGI in the assay on BT-549 breast was over 100 µM; in the assay with COLO 205 colon, over 100 µM; with A498 renal it was over 100 µM; with ACHN renal, over 100 µM; in the assay with UO-31 renal it was over 100 µM; in the assay with MDA-MB-435 it was 96.9 µM. For the same compound, the TGI is 92.2 µM in the assay on UACC-62 melanoma; over 100 µM in the assay with NCI-H522 lung; over 100 µM in the assay on A549 NSCLC; over 100 µM in the assay on MALME-3M melanoma; over 100 µM with HCT-15 colon; over 100 µM in the assay on LOX IMVI melanoma. The TGI was over 100 µM in the assay on OVCAR-8 ovarian; over 100 µM in the assay on SF-295 CNS; over 100 µM in the assay with OVCAR-3 ovarian; 80.3 µM with CCRF-CEM leukemia; over 100 µM in the assay with NCI/ADR-RES ovarian; over 100 µM with NCI-H226 lung. In addition, the TGI was 81.5 µM in the assay with SNB-75 CNS and over 100 µM with 786-0 renal.
Take `O=C1Nc2ccccc2C1S(=O)(=O)c1ccccc1` (stereo not given): the TGI with BT-549 breast, in the assay on COLO 205 colon, in the assay on A498 renal, with ACHN renal, with UO-31 renal and in the assay with MDA-MB-435 was over 100 µM throughout. For the same compound, the TGI in the assay with UACC-62 melanoma, in the assay with NCI-H522 lung, in the assay on A549 NSCLC, in the assay with MALME-3M melanoma, in the assay on HCT-15 colon and with LOX IMVI melanoma was over 100 µM each time. In addition, the TGI in the assay with OVCAR-8 ovarian, in the assay with SF-295 CNS, with OVCAR-3 ovarian, in the assay on CCRF-CEM leukemia, with NCI/ADR-RES ovarian and with NCI-H226 lung was over 100 µM in each case. Also, the TGI in the assay on SNB-75 CNS and in the assay on 786-0 renal was over 100 µM throughout.
With `CCCCC1Cc2cc(OC)ccc2-c2n1c1cc(OC)ccc1[n+]2C` (stereo not given) (tested in a mixture with another compound), the TGI came out at 79 µM with BT-549 breast; 1.69 µM in the assay with COLO 205 colon; 83.2 µM with A498 renal; 48 µM with ACHN renal; 30.9 µM in the assay on UO-31 renal; 3.79 µM in the assay with MDA-MB-435. Moreover, the TGI in the assay on UACC-62 melanoma is 3.03 µM; with NCI-H522 lung, 6.85 µM; in the assay with A549 NSCLC, over 45.7 µM; in the assay with MALME-3M melanoma, 9.71 µM; in the assay on HCT-15 colon, over 56.7 µM; with LOX IMVI melanoma it was 14.3 µM. Also, the TGI with OVCAR-8 ovarian was 49 µM; with SF-295 CNS, over 37.3 µM; in the assay with OVCAR-3 ovarian, over 72.1 µM; with CCRF-CEM leukemia it was 25.3 µM; in the assay with NCI/ADR-RES ovarian, over 100 µM; in the assay on NCI-H226 lung it was 24.2 µM. The TGI with SNB-75 CNS is 87.6 µM; with 786-0 renal, over 100 µM.
For the compound `CC(=O)O[C@H]1C[C@@H](OC(C)=O)[C@@](C)(O)[C@@H]2[C@@H](OC(C)=O)[C@@]3(O)[C@H](/C=C(/CCl)[C@H]4O[C@H]4[C@@H](OC(C)=O)[C@@]12C)OC(=O)[C@@H]3C`, the TGI in the assay on BT-549 breast, with COLO 205 colon, in the assay with A498 renal, with ACHN renal, in the assay with UO-31 renal and in the assay on MDA-MB-435 was over 25 µM each time. In addition, the TGI with UACC-62 melanoma, with NCI-H522 lung, in the assay on A549 NSCLC, in the assay with MALME-3M melanoma, in the assay on HCT-15 colon and in the assay on LOX IMVI melanoma was over 25 µM in each case. Moreover, the TGI with OVCAR-8 ovarian, in the assay on SF-295 CNS, in the assay with OVCAR-3 ovarian, with CCRF-CEM leukemia, with NCI/ADR-RES ovarian and with NCI-H226 lung was over 25 µM each time. Further, the TGI in the assay with SNB-75 CNS and in the assay with 786-0 renal was over 25 µM in each case.
With `Clc1ccc(Cn2cc(/C=N/n3cnnc3)c3ccccc32)cc1`, the TGI was over 100 µM in the assay on BT-549 breast; over 100 µM with COLO 205 colon; 4.34 µM in the assay on A498 renal; over 100 µM in the assay on ACHN renal; over 100 µM in the assay on UO-31 renal; over 100 µM in the assay with MDA-MB-435. In addition, the TGI in the assay with UACC-62 melanoma, in the assay on NCI-H522 lung, in the assay on A549 NSCLC, in the assay with MALME-3M melanoma, with HCT-15 colon and with LOX IMVI melanoma was over 100 µM throughout. Also, the TGI with OVCAR-8 ovarian was over 100 µM; with SF-295 CNS, over 100 µM; with OVCAR-3 ovarian, over 100 µM; in the assay with CCRF-CEM leukemia it was over 100 µM; in the assay with NCI/ADR-RES ovarian, over 100 µM; in the assay on NCI-H226 lung, 4.14 µM. In addition, the figures for the TGI in the assay on SNB-75 CNS and with 786-0 renal were 68.5 µM and over 100 µM, respectively.
Regarding `C=C1C(=O)O[C@@H]2[C@H]1C[C@H](I)[C@@]1(C)CC[C@H](O1)[C@](C)(I)CCCC(C)[C@@H]2O` (stereo not given in full), the TGI with BT-549 breast amounted to 20.9 µM; in the assay with COLO 205 colon, 4.95 µM; in the assay on A498 renal it was 28.1 µM; in the assay with ACHN renal, 3.71 µM; in the assay on UO-31 renal, 7.74 µM; in the assay on MDA-MB-435, 11.6 µM. The TGI in the assay with UACC-62 melanoma worked out at 16.4 µM; in the assay on NCI-H522 lung, 1.59 µM; in the assay with A549 NSCLC, 26.9 µM; with MALME-3M melanoma it was 7.33 µM; in the assay with HCT-15 colon it was 4.57 µM; in the assay on LOX IMVI melanoma, 2.59 µM. The TGI in the assay with OVCAR-8 ovarian was 8.12 µM; in the assay with SF-295 CNS it was 31.8 µM; in the assay with OVCAR-3 ovarian it was 8.09 µM; with CCRF-CEM leukemia, 1.59 µM; with NCI/ADR-RES ovarian it was 9.84 µM; with NCI-H226 lung, 3.85 µM. In addition, the TGI with SNB-75 CNS was 21.3 µM; with 786-0 renal, 2.84 µM.
